Assay results from patent US10709758B2 (priority 2015, dated 2020).
Residues, ends and D or L forms follow the SMILES beside them.

Tests used:
[1] = tested on: TcdB
[2] = tested on: TcdB2
[3] = target: TcdB1 (Clostridioides difficile, UniProt P18177)
[4] = tested on: CHO-K1 cells; type: cell-based
[5] = target: TcdB (Clostridioides difficile, UniProt P18177); conditions: cited from earlier work
TcdB (Clostridioides difficile, UniProt P18177), sequence (P18177 whole entry, looked up): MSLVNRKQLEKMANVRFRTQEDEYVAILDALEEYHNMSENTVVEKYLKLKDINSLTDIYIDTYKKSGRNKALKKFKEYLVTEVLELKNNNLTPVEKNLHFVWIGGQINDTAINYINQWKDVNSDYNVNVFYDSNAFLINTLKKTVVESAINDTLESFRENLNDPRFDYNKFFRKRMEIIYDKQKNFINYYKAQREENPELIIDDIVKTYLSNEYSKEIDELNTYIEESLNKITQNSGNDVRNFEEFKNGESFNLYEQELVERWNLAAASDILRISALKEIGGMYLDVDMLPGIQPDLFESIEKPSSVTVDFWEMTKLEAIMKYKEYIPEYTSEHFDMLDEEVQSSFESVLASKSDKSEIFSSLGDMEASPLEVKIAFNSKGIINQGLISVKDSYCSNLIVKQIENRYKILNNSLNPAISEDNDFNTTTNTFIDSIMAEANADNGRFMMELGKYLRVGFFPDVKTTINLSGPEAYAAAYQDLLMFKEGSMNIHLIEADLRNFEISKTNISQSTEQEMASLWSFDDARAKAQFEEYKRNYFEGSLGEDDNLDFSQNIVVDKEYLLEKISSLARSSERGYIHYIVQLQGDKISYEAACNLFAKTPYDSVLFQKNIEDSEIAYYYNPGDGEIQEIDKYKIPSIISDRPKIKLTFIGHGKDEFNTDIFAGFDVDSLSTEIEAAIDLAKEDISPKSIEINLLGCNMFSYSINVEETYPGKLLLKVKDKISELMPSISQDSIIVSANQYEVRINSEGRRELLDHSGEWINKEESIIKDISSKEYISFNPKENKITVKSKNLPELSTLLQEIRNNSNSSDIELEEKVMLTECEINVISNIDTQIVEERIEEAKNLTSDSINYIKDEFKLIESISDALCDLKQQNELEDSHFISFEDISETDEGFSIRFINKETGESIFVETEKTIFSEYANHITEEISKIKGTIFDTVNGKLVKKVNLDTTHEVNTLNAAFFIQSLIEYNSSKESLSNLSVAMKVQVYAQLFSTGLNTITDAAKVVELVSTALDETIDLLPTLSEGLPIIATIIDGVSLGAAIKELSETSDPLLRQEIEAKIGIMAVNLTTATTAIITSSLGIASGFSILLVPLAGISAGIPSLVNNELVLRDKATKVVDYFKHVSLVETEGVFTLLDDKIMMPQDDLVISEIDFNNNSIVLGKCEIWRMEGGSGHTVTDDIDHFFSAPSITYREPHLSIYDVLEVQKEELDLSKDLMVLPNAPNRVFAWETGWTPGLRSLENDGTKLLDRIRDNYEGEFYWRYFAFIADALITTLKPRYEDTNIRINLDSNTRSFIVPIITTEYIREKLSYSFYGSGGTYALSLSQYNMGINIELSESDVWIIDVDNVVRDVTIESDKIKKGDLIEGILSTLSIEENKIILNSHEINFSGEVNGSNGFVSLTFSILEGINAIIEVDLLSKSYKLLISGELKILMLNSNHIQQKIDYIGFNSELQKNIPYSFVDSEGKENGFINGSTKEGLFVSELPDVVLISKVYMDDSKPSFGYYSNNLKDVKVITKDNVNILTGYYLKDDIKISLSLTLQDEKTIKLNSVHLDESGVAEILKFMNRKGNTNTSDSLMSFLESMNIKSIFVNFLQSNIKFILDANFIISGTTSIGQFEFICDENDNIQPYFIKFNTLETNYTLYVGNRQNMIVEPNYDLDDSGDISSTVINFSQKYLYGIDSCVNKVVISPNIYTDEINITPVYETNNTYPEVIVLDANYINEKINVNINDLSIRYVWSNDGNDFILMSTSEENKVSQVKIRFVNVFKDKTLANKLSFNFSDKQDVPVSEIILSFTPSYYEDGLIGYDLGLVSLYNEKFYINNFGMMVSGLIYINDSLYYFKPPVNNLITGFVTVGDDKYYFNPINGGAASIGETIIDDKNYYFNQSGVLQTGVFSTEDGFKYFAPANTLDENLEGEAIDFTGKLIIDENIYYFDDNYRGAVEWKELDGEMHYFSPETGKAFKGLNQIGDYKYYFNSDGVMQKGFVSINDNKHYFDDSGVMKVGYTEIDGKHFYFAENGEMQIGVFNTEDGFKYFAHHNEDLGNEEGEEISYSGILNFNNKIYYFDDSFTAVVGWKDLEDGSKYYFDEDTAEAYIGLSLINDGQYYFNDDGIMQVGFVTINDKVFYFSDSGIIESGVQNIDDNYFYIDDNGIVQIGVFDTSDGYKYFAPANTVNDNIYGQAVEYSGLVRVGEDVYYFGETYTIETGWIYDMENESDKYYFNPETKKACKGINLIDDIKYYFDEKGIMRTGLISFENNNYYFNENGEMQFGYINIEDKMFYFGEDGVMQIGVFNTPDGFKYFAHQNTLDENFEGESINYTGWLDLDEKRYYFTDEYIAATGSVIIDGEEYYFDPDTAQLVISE

TcdB1, sequence (P18177 2-2366 limits assumed): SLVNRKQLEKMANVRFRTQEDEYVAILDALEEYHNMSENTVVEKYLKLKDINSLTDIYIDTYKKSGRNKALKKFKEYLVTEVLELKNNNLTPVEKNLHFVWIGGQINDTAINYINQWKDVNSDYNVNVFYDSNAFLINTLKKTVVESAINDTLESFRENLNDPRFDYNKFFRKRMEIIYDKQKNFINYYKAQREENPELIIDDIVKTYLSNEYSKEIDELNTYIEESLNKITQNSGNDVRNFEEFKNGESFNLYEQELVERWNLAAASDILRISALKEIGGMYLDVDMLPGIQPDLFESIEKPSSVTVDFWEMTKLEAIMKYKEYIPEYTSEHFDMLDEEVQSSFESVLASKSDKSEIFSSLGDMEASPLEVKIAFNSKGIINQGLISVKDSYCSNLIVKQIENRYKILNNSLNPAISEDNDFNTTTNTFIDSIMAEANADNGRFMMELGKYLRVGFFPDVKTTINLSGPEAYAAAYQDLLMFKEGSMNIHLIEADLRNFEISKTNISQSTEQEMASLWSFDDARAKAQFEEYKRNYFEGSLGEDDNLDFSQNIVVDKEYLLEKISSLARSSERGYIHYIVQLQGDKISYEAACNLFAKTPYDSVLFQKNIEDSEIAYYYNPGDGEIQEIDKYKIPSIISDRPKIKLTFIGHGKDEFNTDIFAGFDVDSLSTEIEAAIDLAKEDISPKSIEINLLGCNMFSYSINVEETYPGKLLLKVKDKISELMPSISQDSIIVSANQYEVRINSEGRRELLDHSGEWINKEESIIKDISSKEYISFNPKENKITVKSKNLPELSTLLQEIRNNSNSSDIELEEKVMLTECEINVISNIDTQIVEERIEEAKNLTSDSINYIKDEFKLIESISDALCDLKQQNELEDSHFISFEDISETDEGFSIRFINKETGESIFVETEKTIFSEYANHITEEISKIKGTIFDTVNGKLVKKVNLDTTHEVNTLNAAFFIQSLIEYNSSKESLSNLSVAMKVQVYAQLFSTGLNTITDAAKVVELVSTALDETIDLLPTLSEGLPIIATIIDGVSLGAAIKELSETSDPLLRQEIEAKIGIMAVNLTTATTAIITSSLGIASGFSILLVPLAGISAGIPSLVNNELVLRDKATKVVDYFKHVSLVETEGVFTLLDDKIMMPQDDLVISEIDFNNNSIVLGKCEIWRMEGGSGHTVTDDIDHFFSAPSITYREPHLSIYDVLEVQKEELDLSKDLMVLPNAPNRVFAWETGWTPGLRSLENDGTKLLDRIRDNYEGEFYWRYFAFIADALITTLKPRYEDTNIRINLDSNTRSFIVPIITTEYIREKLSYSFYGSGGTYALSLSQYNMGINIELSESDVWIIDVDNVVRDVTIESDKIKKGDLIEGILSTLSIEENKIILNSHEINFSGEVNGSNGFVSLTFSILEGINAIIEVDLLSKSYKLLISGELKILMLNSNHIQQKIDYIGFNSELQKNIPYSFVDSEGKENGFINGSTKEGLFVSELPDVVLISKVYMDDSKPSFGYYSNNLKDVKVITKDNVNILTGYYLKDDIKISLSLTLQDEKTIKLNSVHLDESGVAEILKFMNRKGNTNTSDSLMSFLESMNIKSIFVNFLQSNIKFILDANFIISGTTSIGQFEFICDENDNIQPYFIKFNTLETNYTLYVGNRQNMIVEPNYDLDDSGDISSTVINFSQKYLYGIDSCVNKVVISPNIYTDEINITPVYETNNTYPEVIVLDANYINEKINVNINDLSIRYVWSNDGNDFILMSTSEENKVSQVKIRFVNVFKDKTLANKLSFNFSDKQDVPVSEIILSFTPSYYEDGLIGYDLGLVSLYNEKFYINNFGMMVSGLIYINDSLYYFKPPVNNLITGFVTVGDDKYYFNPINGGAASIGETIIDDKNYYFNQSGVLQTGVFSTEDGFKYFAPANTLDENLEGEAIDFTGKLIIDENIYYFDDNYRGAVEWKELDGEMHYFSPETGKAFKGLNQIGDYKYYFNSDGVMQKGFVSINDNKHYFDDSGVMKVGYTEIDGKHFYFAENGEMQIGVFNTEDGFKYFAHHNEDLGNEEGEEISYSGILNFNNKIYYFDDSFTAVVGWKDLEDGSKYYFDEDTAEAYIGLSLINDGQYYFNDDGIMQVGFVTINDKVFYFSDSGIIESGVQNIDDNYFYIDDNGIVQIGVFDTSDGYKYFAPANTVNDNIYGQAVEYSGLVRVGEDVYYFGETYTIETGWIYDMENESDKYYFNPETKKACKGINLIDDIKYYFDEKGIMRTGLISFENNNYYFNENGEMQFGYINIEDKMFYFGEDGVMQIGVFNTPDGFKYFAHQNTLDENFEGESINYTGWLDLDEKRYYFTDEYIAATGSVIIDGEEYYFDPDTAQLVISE

For CC(C)[C@H](NC(=O)[C@H](CCCCN)NC(=O)[C@H](CCCNC(=N)N)NC(=O)[C@H](CCCCN)NC(=O)[C@H](CCCCN)NC(=O)[C@H](CCCCN)NC(=O)[C@@H]1CCCN1C(=O)[C@H](CCC(N)=O)NC(=O)[C@H](CO)NC(=O)[C@H](Cc1c[nH]c2ccccc12)NC(=O)[C@H](CCC(=O)O)NC(=O)[C@@H](NC(=O)[C@H](Cc1c[nH]c2ccccc12)NC(=O)[C@H](Cc1c[nH]c2ccccc12)NC(=O)[C@@H](NC(=O)[C@H](CCC(=O)O)NC(=O)[C@H](Cc1c[nH]c2ccccc12)NC(=O)[C@H](Cc1c[nH]c2ccccc12)NC(=O)[C@@H](NC(=O)[C@H](CCC(=O)O)NC(=O)[C@@H](N)CCCCN)[C@@H](C)O)[C@@H](C)O)[C@@H](C)O)C(=O)O [Pep-1, reference compound] (H-KETWWETWWTEWSQPKKKRKV-OH), the “effect of known CPPs on the cytotoxicity of TcdB” value (from here on “effect of known CPPs”) [1] was “did not appear to alter TcdB cytotoxicity”.

With CC(C)C[C@H](NC(=O)[C@H](CCCCN)NC(=O)[C@H](CC(N)=O)NC(=O)[C@H](C)NC(=O)[C@H](CC(C)C)NC(=O)[C@@H](NC(=O)[C@H](CCCCN)NC(=O)[C@H](CC(=O)O)NC(=O)[C@H](CCCCN)NC(=O)[C@H](Cc1ccccc1)NC(=O)[C@@H](NC(=O)[C@@H](N)CC(N)=O)C(C)C)[C@@H](C)O)C(=O)N[C@@H](CO)C(=O)N[C@@H](Cc1ccccc1)C(=O)N[C@@H](CC(N)=O)C(=O)N[C@@H](Cc1ccccc1)C(=O)N[C@@H](CO)C(=O)N[C@@H](CC(=O)O)C(=O)N[C@@H](CCCCN)C(=O)O [PepB1] (H-NVFKDKTLANKLSFNFSDK-OH) the “protection from cytotoxicity of TcdB2 over a range of toxin concentrations” value [2] was “did not inhibit the cytotoxicity” and the “protection from cytotoxicity of TcdB1 over a range of toxin concentrations” value [3] was “did not inhibit the cytotoxicity”.

For CC[C@H](C)[C@H](NC(=O)[C@H](CCCCN)NC(=O)[C@H](CC(=O)O)NC(=O)[C@H](CO)NC(=O)[C@@H](NC(=O)[C@@H](NC(=O)[C@H](CC(N)=O)NC(=O)CNC(=O)[C@H](CCCCN)NC(=O)[C@H](Cc1ccccc1)NC(=O)[C@@H](NC(=O)[C@@H](N)CC(N)=O)C(C)C)[C@@H](C)O)[C@@H](C)CC)C(=O)N[C@@H](CO)C(=O)N[C@@H](Cc1ccccc1)C(=O)N[C@@H](CC(N)=O)C(=O)N[C@@H](Cc1ccccc1)C(=O)N[C@@H](CO)C(=O)N[C@@H](CC(=O)O)C(=O)N[C@@H](CCCCN)C(=O)O [PepB2], the “increase of the 50% toxic concentration (TC50) of TcdB2” value [2] was 200 fold, the “protection from cytotoxicity of TcdB2 over a range of toxin concentrations” value [2] was “protects CHO-K1 cells” and the “impact on TcdB cytotoxicity, PepB2 alone at 25 μM” value [1] was “minimal impact”. For the same compound, the “inhibition of TcdB cytotoxicity, PepB2 combined with methyl cholate” value [1] was “strong inhibition”.

With N=C(N)NCCC[C@H](NC(=O)CN)C(=O)N[C@@H](CCCCN)C(=O)N[C@@H](CCCCN)C(=O)N[C@@H](CCCNC(=N)N)C(=O)N[C@@H](CCCNC(=N)N)C(=O)N[C@@H](CCC(N)=O)C(=O)N[C@@H](CCCNC(=N)N)C(=O)N[C@@H](CCCNC(=N)N)C(=O)N[C@@H](CCCNC(=N)N)C(=O)N1CCC[C@H]1C(=O)N1CCC[C@H]1C(=O)N[C@@H](CCC(N)=O)C(=O)O [TAT, reference compound] the “effect of known CPPs” value [1] was “did not appear to alter TcdB cytotoxicity”.

In the case of CC[C@H](C)[C@H](NC(=O)[C@H](CCCCN)NC(=O)[C@H](CCCCN)NC(=O)[C@H](C)NC(=O)[C@H](CC(C)C)NC(=O)[C@H](C)NC(=O)[C@H](C)NC(=O)[C@H](CC(C)C)NC(=O)[C@H](C)NC(=O)[C@H](CCCCN)NC(=O)[C@H](CC(C)C)NC(=O)[C@H](CC(N)=O)NC(=O)[C@@H](NC(=O)[C@H](CCCCN)NC(=O)CNC(=O)[C@H](CC(C)C)NC(=O)[C@H](CC(C)C)NC(=O)[C@H](Cc1ccc(O)cc1)NC(=O)CNC(=O)[C@H](C)N)[C@@H](C)CC)C(=O)N[C@@H](CC(C)C)C(=O)O [transportan 10, reference compound], the “effect of known CPPs” value [1] is reported as “did not appear to alter TcdB cytotoxicity”.

In the case of DKFSNSNKDKISFGNVTFI [Scramble 9], the “Anti-TcdB activity of scrambled PepB2 peptides” value (“Anti-TcdB activity” for short) [1] is reported as “found to have inhibitory activity”.

In the case of FKDNNSIIFDVKGTNFSSK [Scramble 8], the “Anti-TcdB activity” value [1] is reported as “found to have inhibitory activity”.

For KPPIKNLITGFTTIGDDKYYF [Peptide 9], the “inhibitory activity against TcdB2 (percent of viable cells)” value [2] was “weaker inhibitory activity” and the “inhibitory activity against TcdB1 (percent of viable cells)” value [3] was “weaker inhibitory activity”.

For NVFKGKTISDKISFNFSDK [PepB2-N6K], the “cell penetrating activities of mutant peptides” value (shortened to “cell penetrating activities”) [4] was “cell penetrating activities were reduced”.

With NVFKGNTLANKLSFNFSDK [PepB1-DK5-6GN] the “cell penetrating activities” value [4] was “cell penetrating activities were gained”.

With NVFKSNTISDKISFNFSDK [PepB2-G5S] the “cell penetrating activities” value [4] was “Cell penetrating activities also remained”, the “dextran delivery compared with PepB2” value [4] was “this is not the case for dextran delivery” and the “transport of dsRNA into cells compared with PepB2” value [4] was “more efficiently transports dsRNA into cells than PepB2”.

In the case of SFNKMSIDFKDIKKLSLGYIMS [TcdA 1774-1795], the “TcdB inhibitory activity?” value [1] is reported as “YES”, the “dose dependence of inhibition of TcdB” value [1] is reported as “Dose-dependent inhibition” and the “inhibitory activity against TcdB toxin” value [1] is reported as “found to have inhibitory activity against TcdB toxin”.

With SNKNFSGIVFTNFDIDKSK [Scramble 12] the “Anti-TcdB activity” value [1] was “found to have inhibitory activity”.

For methyl cholate [reference compound], the “impact on TcdB cytotoxicity, methyl cholate alone” value [1] is listed as “minimal impact” and the “effect on the thermal stability of TcdB” value [5] is listed as “increase the thermal stability of TcdB”.
